From patent US12060400B2, “Peptides for use in immunotherapy against cancers” (Immatics Biotechnologies GmbH, priority 2018, dated 2024)

test system: HLA-A*24; experiment: MHC binding assay: UV-ligand exchange with beta2m ELISA (peptide exchange yield); parameters: species or system human; conditions: Table 11, binding to HLA-A*24, UV-ligand exchange
How it was run: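 Peptide-MHC complexes generated by UV-induced exchange of a photocleavable ligand with the test peptide; exchange yield quantified by streptavidin-capture ELISA detecting β2m (HRP anti-β2m, TMB, A450). Samples diluted 100-fold, with refolded HLA-A*02:01/MLA-001 monomers (15-500 ng/ml) as standards.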

Peptide exchange (MHC class I binding score, peptide exchange yield) | Substance
+ (>10% = +) | 279 (KYKNPYGF; listed as Homo sapiens) [compound 279]
+++ (>50 = +++) | 158 (SYLKDPMIV; listed as Homo sapiens) [compound 158]
++++ (>75% = ++++) | 303 (RFLDRGWGF; listed as Homo sapiens) [compound 303]
++++ (>75% = ++++) | 218 (FYFYNCSSL; listed as Homo sapiens) [compound 218]
++ (>20% = ++) | 64 (QFSHVPLNNF; listed as Homo sapiens) [compound 64]
++++ (>75% = ++++) | 36 (VYLASVAAF; listed as Homo sapiens) [compound 36]
++++ (>75% = ++++) | 49 (QYLSIAERAEF; listed as Homo sapiens) [compound 49]
++++ (>75% = ++++) | 246 (KIYTTVLFANI; listed as Homo sapiens) [compound 246]
++++ (>75% = ++++) | 322 (SFISPRYSWLF; listed as Homo sapiens) [compound 322]
++ (>20% = ++) | 302 (YQGSLEVLF; listed as Homo sapiens) [compound 302]
++++ (>75% = ++++) | 112 (LYPDSVFGRLF; listed as Homo sapiens) [compound 112]
++++ (>75% = ++++) | 62 (VYIVPVIVL; listed as Homo sapiens) [compound 62]
++ (>20% = ++) | 211 (MLYFAPDLIL; listed as Homo sapiens) [compound 211]
++++ (>75% = ++++) | 85 (KYLSIPTVFF; listed as Homo sapiens) [compound 85]
++ (>20% = ++) | 229 (CAMPVAMEF; listed as Homo sapiens) [compound 229]
++ (>20% = ++) | 45 (YGQSKPWTF; listed as Homo sapiens) [compound 45]
++ (>20% = ++) | 196 (VGRSPVFLF; listed as Homo sapiens) [compound 196]
++++ (>75% = ++++) | 134 (IYSSQLPSF; listed as Homo sapiens) [compound 134]
++++ (>75% = ++++) | 250 (VYSDRQIYLL; listed as Homo sapiens) [compound 250]
++++ (>75% = ++++) | 376 (KYVGEVFNI; listed as Homo sapiens) [compound 376]
++++ (>75% = ++++) | 48 (AWSPPATLFLF; listed as Homo sapiens) [compound 48]
++++ (>75% = ++++) | 120 (VYAFMNENF; listed as Homo sapiens) [compound 120]
+ (>10% = +) | 340 (FPPTPPLF; listed as Homo sapiens) [compound 340]

Peptide exchange (MHC class I binding score, peptide exchange yield) | Substance
++++ (>75% = ++++) | 341 (RYENVSILF; listed as Homo sapiens) [compound 341]
++ (>20% = ++) | 12 (KYMSRVLFVY; listed as Homo sapiens) [compound 12]
++++ (>75% = ++++) | 171 (LYTVPFNLI; listed as Homo sapiens) [compound 171]
+ (>10% = +) | 223 (KLRALSILF; listed as Homo sapiens) [compound 223]
++ (>20% = ++) | 130 (RPEKVFVF; listed as Homo sapiens) [compound 130]
+ (>10% = +) | 337 (SHSDHEFLF; listed as Homo sapiens) [compound 337]
+++ (>50 = +++) | 53 (LFQRVSSVSF; listed as Homo sapiens) [compound 53]
+++ (>50 = +++) | 252 (RYLIIKYPF; listed as Homo sapiens) [compound 252]
++++ (>75% = ++++) | 239 (IYTFSNVTF; listed as Homo sapiens) [compound 239]
+++ (>50 = +++) | 179 (MYNMVPFF; listed as Homo sapiens) [compound 179]
++ (>20% = ++) | 216 (RHYHSIEVF; listed as Homo sapiens) [compound 216]
++++ (>75% = ++++) | 255 (VYLDEKQHAW; listed as Homo sapiens) [compound 255]
++ (>20% = ++) | 187 (KWFNVRMGFGF; listed as Homo sapiens) [compound 187]
+ (>10% = +) | 164 (MFQEMLQRL; listed as Homo sapiens) [compound 164]
++++ (>75% = ++++) | 372 (LYHNWRHAF; listed as Homo sapiens) [compound 372]
++++ (>75% = ++++) | 386 (YQSRDYYNF; listed as Homo sapiens) [compound 386]
++ (>20% = ++) | 109 (AQHSLTQLF; listed as Homo sapiens) [compound 109]
++ (>20% = ++) | 121 (RRYFGEKVAL; listed as Homo sapiens) [compound 121]
++++ (>75% = ++++) | 222 (HYHAESFLF; listed as Homo sapiens) [compound 222]
++++ (>75% = ++++) | 28 (FWFDSREISF; listed as Homo sapiens) [compound 28]
++ (>20% = ++) | 238 (YTCSRAVSLF; listed as Homo sapiens) [compound 238]
+ (>10% = +) | 116 (TYFFVANKY; listed as Homo sapiens) [compound 116]
++++ (>75% = ++++) | 207 (IYKFIMDRF; listed as Homo sapiens) [compound 207]

Peptide exchange (MHC class I binding score, peptide exchange yield) | Substance
++++ (>75% = ++++) | 118 (IFLPFFIVF; listed as Homo sapiens) [compound 118]
++ (>20% = ++) | 271 (INGDLVFSF; listed as Homo sapiens) [compound 271]
++++ (>75% = ++++) | 113 (ALMSAFYTF; listed as Homo sapiens) [compound 113]
+++ (>50 = +++) | 10 (QYPEFSIEL; listed as Homo sapiens) [compound 10]
++++ (>75% = ++++) | 80 (SYATPVDLW; listed as Homo sapiens) [compound 80]
++++ (>75% = ++++) | 42 (VYDSIWCNM; listed as Homo sapiens) [compound 42]
+++ (>50 = +++) | 114 (KALMSAFYTF; listed as Homo sapiens) [compound 114]
++++ (>75% = ++++) | 74 (NYVLVPTMF; listed as Homo sapiens) [compound 74]
++++ (>75% = ++++) | 155 (PYSIYPHGVTF; listed as Homo sapiens) [compound 155]
++ (>20% = ++) | 20 (ELMAHPFLL; listed as Homo sapiens) [compound 20]
+++ (>50 = +++) | 135 (KYKQHFPEI; listed as Homo sapiens) [compound 135]
+++ (>50 = +++) | 46 (IYPDSIQEL; listed as Homo sapiens) [compound 46]
++ (>20% = ++) | 11 (RAMCAMMSF; listed as Homo sapiens) [compound 11]
++ (>20% = ++) | 243 (ALFPMGPLTF; listed as Homo sapiens) [compound 243]
++ (>20% = ++) | 357 (RALLPSPLF; listed as Homo sapiens) [compound 357]
++++ (>75% = ++++) | 375 (YYAADQWVF; listed as Homo sapiens) [compound 375]
++ (>20% = ++) | 227 (YLPNPSLNAF; listed as Homo sapiens) [compound 227]
++++ (>75% = ++++) | 343 (EYQQYHPSL; listed as Homo sapiens) [compound 343]
++ (>20% = ++) | 282 (ASYQQSTSSFF; listed as Homo sapiens) [compound 282]
++++ (>75% = ++++) | 60 (RYSPVKDAW; listed as Homo sapiens) [compound 60]
+++ (>50 = +++) | 267 (QHMLPFWTDL; listed as Homo sapiens) [compound 267]
+ (>10% = +) | 37 (ISFSDTVNVW; listed as Homo sapiens) [compound 37]
++++ (>75% = ++++) | 110 (VYSNPDLFW; listed as Homo sapiens) [compound 110]
